Like-named read-outs stand apart in the source and are kept apart here.
Test system: 284 cell lines
Assay: cells
Conditions: Homo sapiens
Description: A screen of 284 cell lines to assess the antiproliferative effect of EHMT2 inhibition was conducted by treating cell lines in 384-well format with a half-log step dilutions of Compound 205 over 10 concentrations with a maximum concentration of 0.1% v/v DMSO. Cells were plated on Day 0 and treated with compound on Day 1. Culture medium was replaced on day 7 and cells redosed. After 10-day incubation, cells were fixed and stained with nuclear dye. Automated fluorescence microscopy was carried out using a Molecular Devices ImageXpress Micro XL high-content imager, and images were collected with a 4× objective. 16-bit TIFF images were acquired and analyzed with MetaXpress 5.1.0.41 software. Cell proliferation was measured by the fluorescence intensity of the incorporated nuclear dye. Cell count IC50 is the test compound concentration at 50% of maximal response of the untreated control.

CNc1cc(C)nc(Nc2ccc(OC)c(OCCCN3CCCC3)c2)n1 [Compound 205]
IC50 (DU-145, read-out: Cell Count IC50, DU145, Prostate): > 10 µM | IC50 (Daoy, read-out: Cell Count IC50, Daoy, Central Nervous System, Medulloblastoma): 1 to 10 µM | IC50 (Daudi, read-out: Cell Count IC50, Daudi, Hematopoietic, Lymphoma): 1 to 10 µM | IC50 (Detroit 562, read-out: Cell Count IC50, Detroit 562, Head and Neck): 1 to 10 µM | IC50 (DoTc2-4510, read-out: Cell Count IC50, DoTc2 4510, Female GU, Cervix): 1 to 10 µM | IC50 (EFM-19, read-out: Cell Count IC50, EFM-19, Breast): > 10 µM | IC50 (FaDu, read-out: Cell Count IC50, FaDu, Head and Neck): 1 to 10 µM | IC50 (G292, read-out: Cell Count IC50, G-292, clone A141B1, Bone, Osteosarcoma): > 10 µM | IC50 (G-361, read-out: Cell Count IC50, G-361, Skin, Melanoma): 1 to 10 µM | IC50 (G-401, read-out: Cell Count IC50, G-401, Kidney): > 10 µM | IC50 (G-402, read-out: Cell Count IC50, G-402, Kidney): 1 to 10 µM | IC50 (HCT-8, read-out: Cell Count IC50, HCT-8, Colon): > 10 µM | IC50 (HCT-15, read-out: Cell Count IC50, HCT-15, Colon): > 10 µM | IC50 (HCT-116, read-out: Cell Count IC50, HCT-116, Colon): > 10 µM | IC50 (HEC-1-A, read-out: Cell Count IC50, HEC-1-A, Female GU, Uterus): 1 to 10 µM | IC50 (HEL 92.1.7, read-out: Cell Count IC50, HEL-92-1-7, Hematopoietic, Leukemia): > 10 µM | IC50 (HMCB, read-out: Cell Count IC50, HMCB, Skin, Melanoma): > 10 µM | IC50 (HPAF-II, read-out: Cell Count IC50, HPAF-II, Pancreas): 1 to 10 µM | IC50 (HT1197, read-out: Cell Count IC50, HT-1197, Bladder): 1 to 10 µM | IC50 (HT-29, read-out: Cell Count IC50, HT-29, Colon): 1 to 10 µM | IC50 (HT-1080, read-out: Cell Count IC50, HT-1080, Soft & Connective Tissue, Sarcoma): > 10 µM | IC50 (HT-1376, read-out: Cell Count IC50, HT1376, Bladder): > 10 µM | IC50 (HeLa, read-out: Cell Count IC50, HeLa, Female GU, Cervix): > 10 µM | IC50 (HepG2, read-out: Cell Count IC50, HepG2, Liver): > 10 µM | IC50 (Hs 294T, read-out: Cell Count IC50, Hs 294T, Skin, Melanoma): 1 to 10 µM | IC50 (Hs 683, read-out: Cell Count IC50, Hs 683, Central Nervous System, Glioma): 1 to 10 µM | IC50 (Hs 695T, read-out: Cell Count IC50, Hs 695T, Skin, Melanoma): 1 to 10 µM | IC50 (Hs746T, read-out: Cell Count IC50, HS 746T, Stomach): > 10 µM | IC50 (Hs-578T, read-out: Cell Count IC50, Hs 578T, Breast): > 10 µM | IC50 (HuCCT-1, read-out: Cell Count IC50, HuCCT1, Liver): 1 to 10 µM | IC50 (HuP-T4, read-out: Cell Count IC50, HuP-T4, Pancreas): 1 to 10 µM | IC50 (HuTu80, read-out: Cell Count IC50, HuTu 80, Duodenum): 1 to 10 µM | IC50 (JEG-3, read-out: Cell Count IC50, JEG-3, Placenta): > 10 µM | IC50 (JIYOYE, read-out: Cell Count IC50, Jiyoye, Hematopoietic, Lymphoma): > 10 µM | IC50 (JeKo-1, read-out: Cell Count IC50, JeKo-1, Hematopoietic, Lymphoma): 1 to 10 µM | IC50 (Jurkat, read-out: Cell Count IC50, Jurkat, Hematopoietic, Leukemia): 1 to 10 µM | IC50 (K562, read-out: Cell Count IC50, K562, Hematopoietic, Leukemia): 1 to 10 µM | IC50 (KATO III, read-out: Cell Count IC50, KATO III, Stomach): 1 to 10 µM | IC50 (KU812, read-out: Cell Count IC50, KU812, Hematopoietic, Leukemia): > 10 µM | IC50 (LNCaP, read-out: Cell Count IC50, LNCaP, Prostate): 0.1 to 1 µM | IC50 (LS174T, read-out: Cell Count IC50, LS-174T, Colon): 1 to 10 µM | IC50 (LS-123, read-out: Cell Count IC50, LS123, Colon): 1 to 10 µM | IC50 (LS-411N, read-out: Cell Count IC50, LS411N, Colon): 1 to 10 µM | IC50 (LS-513, read-out: Cell Count IC50, LS513, Colon): 1 to 10 µM | IC50 (LS-1034, read-out: Cell Count IC50, LS1034, Colon): > 10 µM | IC50 (M059J, read-out: Cell Count IC50, M059J, Central Nervous System, Glioma): > 10 µM | IC50 (MC-IXC, read-out: Cell Count IC50, MC-IXC, Central Nervous System, Neuroblastoma): > 10 µM | IC50 (MCF7, read-out: Cell Count IC50, MCF7, Breast): > 10 µM | IC50 (MDA-MB-231, read-out: Cell Count IC50, MDA MB 231, Breast): 1 to 10 µM | IC50 (MDA-MB-415, read-out: Cell Count IC50, MDA-MB-415, Breast): > 10 µM | IC50 (MDA-MB-436, read-out: Cell Count IC50, MDA-MB-436, Breast): > 10 µM | IC50 (MDA-MB-453, read-out: Cell Count IC50, MDA MB 453, Breast): 1 to 10 µM | IC50 (MDA-MB-468, read-out: Cell Count IC50, MDA MB 468, Breast): 1 to 10 µM | IC50 (ME-180, read-out: Cell Count IC50, ME-180, Female GU, Cervix): > 10 µM | IC50 (MEG-01, read-out: Cell Count IC50, MEG01, Hematopoietic, Leukemia): 1 to 10 µM | IC50 (MES-SA, read-out: Cell Count IC50, MES-SA, Soft & Connective Tissue, Sarcoma): 1 to 10 µM | IC50 (MG-63, read-out: Cell Count IC50, MG-63, Bone, Osteosarcoma): 1 to 10 µM | IC50 (MHH-PREB-1, read-out: Cell Count IC50, MHH-PREB-1, Hematopoietic, Leukemia): 1 to 10 µM | IC50 (MIA PaCa-2, read-out: Cell Count IC50, Mia PaCa-2, Pancreas): 1 to 10 µM | IC50 (MOLT-3, read-out: Cell Count IC50, MOLT-3, Hematopoietic, Leukemia): 1 to 10 µM | IC50 (MOLT-16, read-out: Cell Count IC50, MOLT-16, Hematopoietic, Leukemia): 1 to 10 µM | IC50 (MV4-11, read-out: Cell Count IC50, MV-4-11, Hematopoietic, Leukemia): 0.1 to 1 µM | IC50 (Malme-3M, read-out: Cell Count IC50, MALME3M, Skin, Melanoma): > 10 µM | IC50 (MeWo, read-out: Cell Count IC50, MeWo, Skin, Melanoma): 1 to 10 µM | IC50 (NALM-6, read-out: Cell Count IC50, NALM-6, Hematopoietic, Leukemia): 1 to 10 µM | IC50 (NCI-H69, read-out: Cell Count IC50, NCI-H69, Lung, SCLC): 0.1 to 1 µM | IC50 (NCI-H292, read-out: Cell Count IC50, NCI-H292, Lung, NSCLC): > 10 µM | IC50 (NCI-H295R, read-out: Cell Count IC50, NCI-H295R, Endocrine, Adrenal gland): > 10 µM | IC50 (NCI-H441, read-out: Cell Count IC50, NCIH441, Lung, NSCLC): > 10 µM | IC50 (NCI-H446, read-out: Cell Count IC50, NCIH446, Lung, SCLC): 1 to 10 µM | IC50 (NCI-H460, read-out: Cell Count IC50, NCI-H460, Lung, NSCLC): > 10 µM
